Source: ChEMBL document CHEMBL5226364, “Microbial Dimerization and Chlorination of Isoflavones by a Takla Makan Desert-Derived Streptomyces sp. HDN154127” (2023)
In brackets after ≈: the same amount, converted by molar mass.

Test system: Bacillus cereus
Assay: Antibacterial activity against Bacillus cereus assessed as inhibition of bacterial growth incubated for 24 hrs by microbroth dilution method
Assay type: functional
Details: Bacillus cereus, read-out: MIC

Row | Molecule | MIC
1 | O=c1c(-c2ccc(O)c(-c3cc(-c4coc5c(Cl)c(O)cc(O)c5c4=O)ccc3O)c2)coc2cc(O)cc(O)c12 | > 50 µM
2 | COc1cc(-c2coc3cc(O)c(-c4cc(-c5coc6cc(O)ccc6c5=O)ccc4O)cc3c2=O)ccc1O | 12 µM (≈ 6.44 µg/mL)
3 | O=c1c(-c2ccc(O)cc2)coc2cc(O)cc(O)c12 [GENISTEIN] | > 50 µM
4 | O=c1c(-c2ccc(O)c(-c3c(O)cc(O)c4c(=O)c(-c5ccc(O)cc5)coc34)c2)coc2cc(O)cc(O)c12 | 3.1 µM (≈ 1.67 µg/mL)
5 | O=c1c(-c2ccc(Oc3c(O)cc(O)c4c(=O)c(-c5ccc(O)cc5)coc34)cc2)coc2c(Cl)c(O)ccc12 | > 50 µM
6 | O=c1c(-c2ccc(O)cc2)coc2cc(O)ccc12 [DAIDZEIN] | > 50 µM

Test system: Proteus sp.
Assay: Antibacterial activity against Proteus sp. assessed as inhibition of bacterial growth incubated for 24 hrs by microbroth dilution method
Assay type: functional
Details: Proteus sp. (in: enterobacteria), read-out: MIC

Row | Molecule | MIC
7 | O=c1c(-c2ccc(O)c(-c3c(O)cc(O)c4c(=O)c(-c5ccc(O)cc5)coc34)c2)coc2cc(O)ccc12 | 12 µM (≈ 6.27 µg/mL)
8 | O=c1c(-c2ccc(O)c(-c3cc(-c4coc5c(Cl)c(O)cc(O)c5c4=O)ccc3O)c2)coc2cc(O)cc(O)c12 | > 50 µM
9 | COc1cc(-c2coc3cc(O)c(-c4cc(-c5coc6cc(O)ccc6c5=O)ccc4O)cc3c2=O)ccc1O | 12 µM (≈ 6.44 µg/mL)
10 | O=c1c(-c2ccc(O)cc2)coc2cc(O)cc(O)c12 [GENISTEIN] | > 50 µM
11 | O=c1c(-c2ccc(O)c(-c3c(O)cc(O)c4c(=O)c(-c5ccc(O)cc5)coc34)c2)coc2cc(O)cc(O)c12 | 0.8 µM (≈ 0.431 µg/mL)
12 | O=c1c(-c2ccc(Oc3c(O)cc(O)c4c(=O)c(-c5ccc(O)cc5)coc34)cc2)coc2c(Cl)c(O)ccc12 | > 50 µM
13 | O=c1c(-c2ccc(O)cc2)coc2cc(O)ccc12 [DAIDZEIN] | > 50 µM

Test system: Mycolicibacterium phlei
Assay: Antibacterial activity against Mycobacterium phlei assessed as inhibition of bacterial growth incubated for 24 hrs by microbroth dilution method
Assay type: functional
Details: Mycolicibacterium phlei, read-out: MIC

Row | Molecule | MIC
14 | O=c1c(-c2ccc(O)c(-c3cc(-c4coc5c(Cl)c(O)cc(O)c5c4=O)ccc3O)c2)coc2cc(O)cc(O)c12 | > 50 µM
15 | COc1cc(-c2coc3cc(O)c(-c4cc(-c5coc6cc(O)ccc6c5=O)ccc4O)cc3c2=O)ccc1O | 12 µM (≈ 6.44 µg/mL)
16 | O=c1c(-c2ccc(O)cc2)coc2cc(O)cc(O)c12 [GENISTEIN] | > 50 µM
17 | O=c1c(-c2ccc(O)c(-c3c(O)cc(O)c4c(=O)c(-c5ccc(O)cc5)coc34)c2)coc2cc(O)cc(O)c12 | 0.8 µM (≈ 0.431 µg/mL)
18 | O=c1c(-c2ccc(Oc3c(O)cc(O)c4c(=O)c(-c5ccc(O)cc5)coc34)cc2)coc2c(Cl)c(O)ccc12 | > 50 µM
19 | O=c1c(-c2ccc(O)cc2)coc2cc(O)ccc12 [DAIDZEIN] | > 50 µM

Test system: Bacillus subtilis
Assay: Antibacterial activity against Bacillus subtilis assessed as inhibition of bacterial growth incubated for 24 hrs by microbroth dilution method
Assay type: functional
Details: not given

Row | Molecule | MIC
20 | O=c1c(-c2ccc(O)c(-c3c(O)cc(O)c4c(=O)c(-c5ccc(O)cc5)coc34)c2)coc2cc(O)ccc12 | 12 µM (≈ 6.27 µg/mL)

Same assay, conditions: Bacillus subtilis, read-out: MIC

Row | Molecule | MIC
21 | O=c1c(-c2ccc(O)c(-c3c(O)cc(O)c4c(=O)c(-c5ccc(O)cc5)coc34)c2)coc2cc(O)ccc12 | 6.2 µM (≈ 3.24 µg/mL)
22 | O=c1c(-c2ccc(O)c(-c3cc(-c4coc5c(Cl)c(O)cc(O)c5c4=O)ccc3O)c2)coc2cc(O)cc(O)c12 | > 50 µM
23 | COc1cc(-c2coc3cc(O)c(-c4cc(-c5coc6cc(O)ccc6c5=O)ccc4O)cc3c2=O)ccc1O | 12 µM (≈ 6.44 µg/mL)
24 | O=c1c(-c2ccc(O)cc2)coc2cc(O)cc(O)c12 [GENISTEIN] | > 50 µM
25 | O=c1c(-c2ccc(O)c(-c3c(O)cc(O)c4c(=O)c(-c5ccc(O)cc5)coc34)c2)coc2cc(O)cc(O)c12 | 0.8 µM (≈ 0.431 µg/mL)
26 | O=c1c(-c2ccc(Oc3c(O)cc(O)c4c(=O)c(-c5ccc(O)cc5)coc34)cc2)coc2c(Cl)c(O)ccc12 | 0.4 µM (≈ 0.223 µg/mL)
27 | O=c1c(-c2ccc(O)cc2)coc2cc(O)ccc12 [DAIDZEIN] | > 50 µM

Test system: Vibrio parahaemolyticus
Assay: Antibacterial activity against Vibrio parahaemolyticus assessed as inhibition of bacterial growth incubated for 24 hrs by microbroth dilution method
Assay type: functional
Details: not given

Row | Molecule | MIC
28 | O=c1c(-c2ccc(O)c(-c3cc(-c4coc5c(Cl)c(O)cc(O)c5c4=O)ccc3O)c2)coc2cc(O)cc(O)c12 | 1.6 µM (≈ 0.917 µg/mL)
29 | COc1cc(-c2coc3cc(O)c(-c4cc(-c5coc6cc(O)ccc6c5=O)ccc4O)cc3c2=O)ccc1O | 50 µM (≈ 26.8 µg/mL)
30 | O=c1c(-c2ccc(O)cc2)coc2cc(O)cc(O)c12 [GENISTEIN] | > 50 µM
31 | O=c1c(-c2ccc(O)c(-c3c(O)cc(O)c4c(=O)c(-c5ccc(O)cc5)coc34)c2)coc2cc(O)cc(O)c12 | 0.8 µM (≈ 0.431 µg/mL)
32 | O=c1c(-c2ccc(Oc3c(O)cc(O)c4c(=O)c(-c5ccc(O)cc5)coc34)cc2)coc2c(Cl)c(O)ccc12 | > 50 µM
33 | O=c1c(-c2ccc(O)cc2)coc2cc(O)ccc12 [DAIDZEIN] | > 50 µM

Test system: Candida albicans
Assay: Antifungal activity against monilia albicans assessed as inhibition of fungal growth incubated for 24 hrs by microbroth dilution method
Assay type: functional
Details: not given

Row | Molecule | MIC
34 | O=c1c(-c2ccc(O)c(-c3c(O)cc(O)c4c(=O)c(-c5ccc(O)cc5)coc34)c2)coc2cc(O)ccc12 | > 50 µM
35 | NYSTATIN | 25 µM
36 | O=c1c(-c2ccc(O)c(-c3cc(-c4coc5c(Cl)c(O)cc(O)c5c4=O)ccc3O)c2)coc2cc(O)cc(O)c12 | 1.6 µM (≈ 0.917 µg/mL)
37 | COc1cc(-c2coc3cc(O)c(-c4cc(-c5coc6cc(O)ccc6c5=O)ccc4O)cc3c2=O)ccc1O | > 50 µM
38 | O=c1c(-c2ccc(O)cc2)coc2cc(O)cc(O)c12 [GENISTEIN] | > 50 µM
39 | O=c1c(-c2ccc(O)c(-c3c(O)cc(O)c4c(=O)c(-c5ccc(O)cc5)coc34)c2)coc2cc(O)cc(O)c12 | > 50 µM
40 | O=c1c(-c2ccc(Oc3c(O)cc(O)c4c(=O)c(-c5ccc(O)cc5)coc34)cc2)coc2c(Cl)c(O)ccc12 | > 50 µM
41 | O=c1c(-c2ccc(O)cc2)coc2cc(O)ccc12 [DAIDZEIN] | > 50 µM

Test system: Staphylococcus aureus
Assay: Antibacterial activity against methicillin-resistant Staphylococcus aureus assessed as inhibition of bacterial growth incubated for 24 hrs by microbroth dilution method
Assay type: functional
Details: not given

Row | Molecule | MIC
42 | O=c1c(-c2ccc(O)c(-c3c(O)cc(O)c4c(=O)c(-c5ccc(O)cc5)coc34)c2)coc2cc(O)ccc12 | > 50 µM
43 | O=c1c(-c2ccc(O)c(-c3cc(-c4coc5c(Cl)c(O)cc(O)c5c4=O)ccc3O)c2)coc2cc(O)cc(O)c12 | > 50 µM
44 | COc1cc(-c2coc3cc(O)c(-c4cc(-c5coc6cc(O)ccc6c5=O)ccc4O)cc3c2=O)ccc1O | > 50 µM
45 | O=c1c(-c2ccc(O)cc2)coc2cc(O)cc(O)c12 [GENISTEIN] | > 50 µM
46 | O=c1c(-c2ccc(O)c(-c3c(O)cc(O)c4c(=O)c(-c5ccc(O)cc5)coc34)c2)coc2cc(O)cc(O)c12 | 0.8 µM (≈ 0.431 µg/mL)
47 | O=c1c(-c2ccc(Oc3c(O)cc(O)c4c(=O)c(-c5ccc(O)cc5)coc34)cc2)coc2c(Cl)c(O)ccc12 | > 50 µM
48 | O=c1c(-c2ccc(O)cc2)coc2cc(O)ccc12 [DAIDZEIN] | > 50 µM
